Assay results reported in ChEMBL document CHEMBL1154613, “Antagonists of the calcium receptor. 2. Amino alcohol-based parathyroid hormone secretagogues” (J Med Chem, 2009).

Legend:
[1] = Half life in iv and po dosed rat; type: ADME, organism-based; conditions: in vivo
[2] = Half life in iv and po dosed dog; type: ADME, organism-based, Canis lupus familiaris; conditions: in vivo
[3] = test system: Rattus norvegicus; experiment: Oral bioavailability in rat assessed as (R)-3-(3-cyano-4-(2-hydroxy-3-(2-methyl-1-(naphthalen-2-yl)propan-2-ylamino)propoxy)phenyl)propanoic acid levels; type: ADME, organism-based; conditions: in vivo
[4] = test system: Canis familiaris; experiment: Oral bioavailability in dog assessed as (R)-3-(3-cyano-4-(2-hydroxy-3-(2-methyl-1-(naphthalen-2-yl)propan-2-ylamino)propoxy)phenyl)propanoic acid levels; type: ADME, organism-based, Canis lupus familiaris; conditions: in vivo
[5] = test system: Canis familiaris; experiment: Tmax in dog assessed as (R)-3-(3-cyano-4-(2-hydroxy-3-(2-methyl-1-(naphthalen-2-yl)propan-2-ylamino)propoxy)phenyl)propanoic acid levels at 23.4 mg/kg, po; type: ADME, organism-based, Canis lupus familiaris; design: dose 23.4 mg/kg, route oral; conditions: in vivo
[6] = test system: Canis familiaris; experiment: Cmax in dog assessed as (R)-3-(3-cyano-4-(2-hydroxy-3-(2-methyl-1-(naphthalen-2-yl)propan-2-ylamino)propoxy)phenyl)propanoic acid levels at 23.4 mg/kg, po; type: ADME, organism-based, Canis lupus familiaris; design: dose 23.4 mg/kg, route oral; conditions: in vivo
[7] = target: Beta-2 adrenergic receptor (Homo sapiens, UniProt P07550); experiment: Inhibition of beta2 adrenergic receptor
[8] = Mean residence time in iv and po dosed rat; type: ADME, organism-based; conditions: in vivo
[9] = Mean residence time in iv and po dosed dog; type: ADME, organism-based, Canis lupus familiaris; conditions: in vivo
[10] = target: T1, Extracellular calcium-sensing receptor (Homo sapiens, UniProt P41180); experiment: Antagonist activity at human calcium receptor expressed in HEK293 4.0-7 cells assessed as inhibition of intracellular calcium release by FLIPR assay; type: functional, cell-based
T1 sequence (P41180 whole entry): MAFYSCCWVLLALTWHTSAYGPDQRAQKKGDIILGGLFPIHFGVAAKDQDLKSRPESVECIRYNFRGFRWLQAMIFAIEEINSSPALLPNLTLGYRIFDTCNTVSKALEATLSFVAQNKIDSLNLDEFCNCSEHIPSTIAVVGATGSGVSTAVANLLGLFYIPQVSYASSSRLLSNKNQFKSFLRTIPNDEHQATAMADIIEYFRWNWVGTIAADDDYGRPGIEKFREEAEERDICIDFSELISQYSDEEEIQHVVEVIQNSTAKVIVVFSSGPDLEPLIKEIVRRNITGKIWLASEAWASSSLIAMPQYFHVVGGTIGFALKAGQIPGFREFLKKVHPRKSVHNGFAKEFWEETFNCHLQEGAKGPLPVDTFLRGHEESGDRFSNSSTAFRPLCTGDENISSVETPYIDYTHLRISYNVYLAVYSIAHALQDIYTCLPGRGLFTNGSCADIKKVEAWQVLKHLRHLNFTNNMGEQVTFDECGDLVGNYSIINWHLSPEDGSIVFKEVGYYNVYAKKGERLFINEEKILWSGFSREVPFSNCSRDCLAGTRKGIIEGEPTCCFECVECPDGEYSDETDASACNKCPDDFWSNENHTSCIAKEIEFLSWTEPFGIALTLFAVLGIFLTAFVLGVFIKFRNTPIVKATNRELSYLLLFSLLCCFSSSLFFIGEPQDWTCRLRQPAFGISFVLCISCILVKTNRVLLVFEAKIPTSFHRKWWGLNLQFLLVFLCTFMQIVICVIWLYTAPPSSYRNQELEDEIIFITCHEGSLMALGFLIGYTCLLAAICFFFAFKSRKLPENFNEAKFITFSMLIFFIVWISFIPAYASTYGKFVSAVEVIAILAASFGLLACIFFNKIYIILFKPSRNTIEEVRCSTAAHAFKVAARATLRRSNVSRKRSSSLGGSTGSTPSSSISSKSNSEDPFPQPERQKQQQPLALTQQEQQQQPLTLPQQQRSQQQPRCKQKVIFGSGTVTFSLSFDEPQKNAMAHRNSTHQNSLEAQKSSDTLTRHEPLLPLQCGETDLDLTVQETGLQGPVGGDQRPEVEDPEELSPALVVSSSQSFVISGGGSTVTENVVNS

[11] = target: T1, Extracellular calcium-sensing receptor; experiment: Displacement of [3H](2-(2-hydroxyphenyl)-6-methyl-5-(2-methylpropyl)-3-(2-phenylethyl)-4(3H)-pyrimidinone) from human calcium receptor expressed in human HEK293 4.0-7 cells by liquid scintillation counting; type: cell-based
[12] = target: Sodium-dependent serotonin transporter (Homo sapiens, UniProt P31645); experiment: Inhibition of SERT
[13] = target: Sodium-dependent noradrenaline transporter (Homo sapiens, UniProt P23975); experiment: Inhibition of NET
[14] = target: Sodium-dependent dopamine transporter (Homo sapiens, UniProt Q01959); experiment: Inhibition of DAT
[15] = target: Cytochrome P450 2D6 (Homo sapiens, UniProt P10635); experiment: Inhibition of CYP2D6; type: ADME
[16] = target: Voltage-gated inwardly rectifying potassium channel KCNH2 (Homo sapiens, UniProt Q12809)
[17] = Clearance in iv and po dosed rat; type: ADME, organism-based; conditions: in vivo
[18] = Volume of distribution at steady state in iv and po dosed rat; type: ADME, organism-based; conditions: in vivo, read-out: Vdss
[19] = Oral bioavailability in rat; type: ADME, organism-based; conditions: in vivo
[20] = Clearance in iv and po dosed dog; type: ADME, organism-based, Canis lupus familiaris; conditions: in vivo
[21] = Volume of distribution at steady state in iv and po dosed dog; type: ADME, organism-based, Canis lupus familiaris; conditions: in vivo, read-out: Vdss
[22] = test system: Rattus norvegicus; experiment: Metabolic stability in intraportal dosed rat assessed as hepatic first pass; type: ADME, organism-based; conditions: in vivo, other
[23] = test system: Canis familiaris; experiment: Metabolic stability in intraportal dosed dog assessed as hepatic first pass; type: ADME, organism-based, Canis lupus familiaris; conditions: in vivo, other

Sequence of Sodium-dependent dopamine transporter (Q01959 whole entry): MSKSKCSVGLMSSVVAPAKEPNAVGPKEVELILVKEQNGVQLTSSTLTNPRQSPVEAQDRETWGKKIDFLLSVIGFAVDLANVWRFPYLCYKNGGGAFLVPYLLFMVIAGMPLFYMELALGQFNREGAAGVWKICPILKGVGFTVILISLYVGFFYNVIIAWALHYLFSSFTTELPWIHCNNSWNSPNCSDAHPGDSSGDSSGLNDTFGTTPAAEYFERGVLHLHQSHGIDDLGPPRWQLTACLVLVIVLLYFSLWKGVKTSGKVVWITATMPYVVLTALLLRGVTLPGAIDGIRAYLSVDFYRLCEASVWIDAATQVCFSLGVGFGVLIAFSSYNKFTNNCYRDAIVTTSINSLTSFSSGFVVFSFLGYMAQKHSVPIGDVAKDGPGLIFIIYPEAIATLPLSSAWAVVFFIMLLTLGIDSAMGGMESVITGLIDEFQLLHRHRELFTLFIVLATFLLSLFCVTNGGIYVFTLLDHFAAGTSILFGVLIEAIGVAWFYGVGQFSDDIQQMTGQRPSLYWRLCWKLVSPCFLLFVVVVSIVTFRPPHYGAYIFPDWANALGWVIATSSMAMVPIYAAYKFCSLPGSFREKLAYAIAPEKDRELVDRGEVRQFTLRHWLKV
Sequence of Voltage-gated inwardly rectifying potassium channel KCNH2 (Q12809 whole entry): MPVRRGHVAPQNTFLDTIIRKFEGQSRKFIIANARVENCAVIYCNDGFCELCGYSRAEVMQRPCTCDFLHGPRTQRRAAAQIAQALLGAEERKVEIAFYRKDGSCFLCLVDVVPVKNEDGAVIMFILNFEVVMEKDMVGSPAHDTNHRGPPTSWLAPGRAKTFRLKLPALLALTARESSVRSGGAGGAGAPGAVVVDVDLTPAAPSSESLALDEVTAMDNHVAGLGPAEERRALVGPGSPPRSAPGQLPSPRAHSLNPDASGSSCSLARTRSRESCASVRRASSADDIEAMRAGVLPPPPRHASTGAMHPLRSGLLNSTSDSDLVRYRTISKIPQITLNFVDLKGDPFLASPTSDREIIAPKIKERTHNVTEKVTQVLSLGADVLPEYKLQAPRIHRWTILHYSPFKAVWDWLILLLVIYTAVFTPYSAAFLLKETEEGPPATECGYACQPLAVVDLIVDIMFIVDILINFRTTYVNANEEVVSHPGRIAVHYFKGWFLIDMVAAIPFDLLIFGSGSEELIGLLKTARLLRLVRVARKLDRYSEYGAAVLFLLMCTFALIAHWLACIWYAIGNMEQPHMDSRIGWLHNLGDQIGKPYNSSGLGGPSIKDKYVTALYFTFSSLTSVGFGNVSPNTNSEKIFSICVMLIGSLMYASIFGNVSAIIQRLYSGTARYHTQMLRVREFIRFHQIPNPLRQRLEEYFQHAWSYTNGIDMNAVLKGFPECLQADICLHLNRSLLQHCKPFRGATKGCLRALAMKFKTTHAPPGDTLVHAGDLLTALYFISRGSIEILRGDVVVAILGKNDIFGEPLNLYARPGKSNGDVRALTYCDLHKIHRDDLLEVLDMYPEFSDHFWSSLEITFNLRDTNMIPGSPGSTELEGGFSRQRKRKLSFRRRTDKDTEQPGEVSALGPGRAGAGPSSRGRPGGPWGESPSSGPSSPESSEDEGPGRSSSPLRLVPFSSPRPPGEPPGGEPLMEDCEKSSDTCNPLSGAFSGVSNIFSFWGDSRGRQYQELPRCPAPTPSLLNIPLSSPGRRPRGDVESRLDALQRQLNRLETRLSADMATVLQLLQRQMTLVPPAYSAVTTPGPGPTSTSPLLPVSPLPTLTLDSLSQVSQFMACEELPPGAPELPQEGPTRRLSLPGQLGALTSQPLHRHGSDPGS
Sequence of Beta-2 adrenergic receptor (P07550 whole entry): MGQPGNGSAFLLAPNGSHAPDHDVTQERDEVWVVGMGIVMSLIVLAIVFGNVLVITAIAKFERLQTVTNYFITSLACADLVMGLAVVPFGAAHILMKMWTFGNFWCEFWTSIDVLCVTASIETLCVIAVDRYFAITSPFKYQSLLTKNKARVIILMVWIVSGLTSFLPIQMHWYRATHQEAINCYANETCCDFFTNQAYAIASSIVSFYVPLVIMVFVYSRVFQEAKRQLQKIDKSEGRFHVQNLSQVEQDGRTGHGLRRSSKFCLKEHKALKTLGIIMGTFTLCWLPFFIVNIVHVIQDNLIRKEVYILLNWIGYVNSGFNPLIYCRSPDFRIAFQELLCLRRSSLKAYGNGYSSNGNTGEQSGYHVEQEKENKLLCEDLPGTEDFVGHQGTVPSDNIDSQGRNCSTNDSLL
Sequence of Sodium-dependent serotonin transporter (P31645 whole entry): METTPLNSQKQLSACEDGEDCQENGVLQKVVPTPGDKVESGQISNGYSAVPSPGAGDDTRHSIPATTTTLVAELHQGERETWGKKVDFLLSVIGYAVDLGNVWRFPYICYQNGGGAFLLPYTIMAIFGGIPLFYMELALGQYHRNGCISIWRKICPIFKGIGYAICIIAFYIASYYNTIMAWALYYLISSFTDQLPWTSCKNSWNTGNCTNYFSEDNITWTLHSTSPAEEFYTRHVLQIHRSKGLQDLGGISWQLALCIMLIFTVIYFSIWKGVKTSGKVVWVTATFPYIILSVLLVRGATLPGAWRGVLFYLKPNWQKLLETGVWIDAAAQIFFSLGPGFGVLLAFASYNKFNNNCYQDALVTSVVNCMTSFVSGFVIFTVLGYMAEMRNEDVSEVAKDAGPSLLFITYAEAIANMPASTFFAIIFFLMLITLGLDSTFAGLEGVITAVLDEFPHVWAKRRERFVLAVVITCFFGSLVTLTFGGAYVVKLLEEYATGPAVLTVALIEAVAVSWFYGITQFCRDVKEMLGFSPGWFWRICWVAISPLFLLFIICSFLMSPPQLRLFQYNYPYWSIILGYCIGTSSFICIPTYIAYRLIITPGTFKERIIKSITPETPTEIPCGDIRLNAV
Sequence of Sodium-dependent noradrenaline transporter (P23975 whole entry): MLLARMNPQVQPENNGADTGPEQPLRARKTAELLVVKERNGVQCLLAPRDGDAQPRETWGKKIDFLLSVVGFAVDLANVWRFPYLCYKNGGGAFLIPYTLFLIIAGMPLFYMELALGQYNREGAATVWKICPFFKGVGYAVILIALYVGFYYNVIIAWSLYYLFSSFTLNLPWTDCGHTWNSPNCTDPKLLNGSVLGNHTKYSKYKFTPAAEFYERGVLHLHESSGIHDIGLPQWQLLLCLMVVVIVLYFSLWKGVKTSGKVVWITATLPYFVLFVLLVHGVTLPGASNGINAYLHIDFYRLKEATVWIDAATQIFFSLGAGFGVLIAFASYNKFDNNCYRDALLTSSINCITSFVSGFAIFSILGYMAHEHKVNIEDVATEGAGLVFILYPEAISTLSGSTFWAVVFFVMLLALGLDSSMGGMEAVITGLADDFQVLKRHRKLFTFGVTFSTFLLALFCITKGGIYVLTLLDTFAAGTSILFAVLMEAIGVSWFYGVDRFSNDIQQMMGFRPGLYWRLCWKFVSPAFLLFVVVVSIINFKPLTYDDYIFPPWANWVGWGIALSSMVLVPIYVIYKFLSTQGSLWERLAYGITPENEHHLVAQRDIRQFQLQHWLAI
Sequence of Cytochrome P450 2D6 (P10635 whole entry): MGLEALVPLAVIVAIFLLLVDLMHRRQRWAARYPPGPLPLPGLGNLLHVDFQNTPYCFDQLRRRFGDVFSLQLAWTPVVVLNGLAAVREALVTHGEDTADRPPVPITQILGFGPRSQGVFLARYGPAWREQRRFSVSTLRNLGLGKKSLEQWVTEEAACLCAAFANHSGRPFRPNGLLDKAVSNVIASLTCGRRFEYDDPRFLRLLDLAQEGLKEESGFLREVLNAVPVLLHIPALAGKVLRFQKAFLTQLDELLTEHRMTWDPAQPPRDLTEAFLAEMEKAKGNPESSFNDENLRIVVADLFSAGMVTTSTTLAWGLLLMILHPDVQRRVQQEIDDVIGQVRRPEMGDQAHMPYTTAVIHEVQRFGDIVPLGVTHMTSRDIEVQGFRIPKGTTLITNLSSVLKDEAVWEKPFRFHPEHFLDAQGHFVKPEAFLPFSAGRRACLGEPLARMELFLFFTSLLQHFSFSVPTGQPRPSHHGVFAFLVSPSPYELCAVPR

Row | Compound | half-life [1] [min] | half-life [2] [min] | IC50 [7] [nM] | MRT [8] [min] | MRT [9] [min] | IC50 [10] [nM] | IC50 [11] [nM] | IC50 [12] [nM] | IC50 [13] [nM] | IC50 [14] [nM] | IC50 [15] [nM] | clearance [17] [mL/min/kg] | Vd [18] [L/kg] | bioavailability [19] [%] | IC50 [16] [nM] | other results
1 | COc1ccc(CC(C)(C)NC[C@H](O)COc2cccc3[nH]c(=O)[nH]c23)cc1 |  |  | 1.3 |  |  | 11000 | 31800 |  |  |  | 1260 |  |  |  | 11.8 | 
2 | CC(C)(Cc1ccc2ccccc2c1)NC[C@@H](O)COc1ccc(CCC(=O)O)cc1 | 24 |  | > 30000 | 18 |  | > 25000 | 4800 | 68 | 16000 | 3700 | 52000 | 118 | 2.1 | 4 | 38.5 | 
3 | CC(C)(Cc1ccc2ccccc2c1)NC[C@@H](O)COc1ccc(CCC(=O)O)cc1C#N | 33.6 | 73.8 | > 30000 | 19.2 | 51 | 200 | 22 | 23 | 5400 | 2800 | > 50000 | 63.6 | 1.18 | 0.29 | 32.7 | clearance [20]: 15.4 mL/min/kg; Vd [21]: 0.78 L/kg; Activity [22]: 68%; Activity [23]: 90%
4 | CC(C)(Cc1ccc2ccccc2c1)NC[C@@H](O)COc1cccc(Cl)c1C#N | 126 |  | 4300 | 150 |  | 58 | 3 |  |  |  | 45 | 73.8 | 11 | 11.4 | 3 | 

Second part, led by results:

Row | half-life [1] [min] | half-life [2] [min] | IC50 [7] [nM] | MRT [8] [min] | MRT [9] [min] | IC50 [10] [nM] | IC50 [11] [nM] | IC50 [12] [nM] | IC50 [13] [nM] | IC50 [14] [nM] | IC50 [15] [nM] | clearance [17] [mL/min/kg] | Vd [18] [L/kg] | bioavailability [19] [%] | Compound | IC50 [16] [nM] | other results
5 | 52.8 | 73.8 | 14000 | 42 | 82.2 | 34 | 3 | 78 | 37 | 59 | 3000 |  |  |  | CCOC(=O)CCc1ccc(OC[C@H](O)CNC(C)(C)Cc2ccc3ccccc3c2)c(C#N)c1.Cl |  | F [3]: 9.5%; F [4]: 9.1%; Tmax [5]: 30 min; Cmax [6]: 597 ng/mL
6 |  |  |  |  |  | 18 | 3 | 3 | 3 | 2 | 100 |  |  |  | CC(C)(Cc1ccc2ccccc2c1)NC[C@@H](O)COc1ccccc1C#N | 3.2 | 
